Measured values published in patent US20250296922A1, “POLYSUBSTITUTED PYRROLIDINE DERIVATIVE, PREPARATION METHOD THEREFOR AND USE THEREOF” (SHANGHAI WENNAI THERAPEUTICS CO LTD, priority 2023, published 2025).

What was measured:
[1] = Proportion of free drug in human plasma, equilibrium dialysis; format: in vitro ADME; settings: 2 μM compound, dialysis 4 h, 37° C.
Method: On the day of the experiment, human plasma samples (purchased from Biomex) were thawed under running tap water and centrifuged at 3220 g for 5 min to remove blood clots. The pH of the resulting plasma was measured and adjusted to pH 7.4+0.1 by using 1% phosphoric acid or 1 N sodium hydroxide as required.
Pretreating the dialysis membranes according to the manufacturer's instructions: The dialysis membrane strips were soaked in ultrapure water at room temperature for approximately 1 hour. Afterwards, each membrane strip containing 2 layers of membrane was separated and soaked in ethanol: water (20:80 v: v) for approximately 20 minutes, then it was ready for use or stored at 2-8° C. (stored for up to 1 month). The membranes were rinsed and soaked in ultrapure water for 20 min before experiments.
A 10 mM DMSO solution of test compound or control warfarin was taken and diluted to 400 μM with DMSO, then 3 μl was taken and added to 597 μl of blank plasma matrix solution to obtain 2 μM of compound solution respectively. 50 μl of test compound solution or control solution was transferred to a sample collection plate with 3 replicate wells per sample. […]
Unbonded %, bonded % and recovered % were calculated using the following formulae. […]

[2] = Stability of the compound in liver microsomes (rat); format: in vitro ADME, SD rat; settings: 1 μM compound, 0.5 mg protein/mL
Method: 2.1.1. working solution: 5 μL of test or control compound stock solution (10 mM DMSO solution) was diluted with 495 μL of acetonitrile (ACN) to obtain an intermediate stock solution (100 μM, 99% ACN).
2.2.2 Preparation procedure: An appropriate amount of NADPH powder was weighed and diluted with 10 mM MgCl2 buffer (working solution concentration: 10 mM; final reaction system concentration: 1 mM).
2.3.2 Preparation procedure: The appropriate concentration of liver microsomal working solution was prepared in 100 mM potassium phosphate buffer;
Acetonitrile (ACN) solution at 4° C. containing 200 ng/mL of Tolbutamide and 200 ng/ml of labetalol as internal standards 2.5. Operation steps:
2.5.2. Diluting liver microsomes with 100 mM potassium phosphate buffer to a concentration of 0.56 mg/mL.
2.5.3. Transferring 445 μL of liver microsomal working solution (0.56 mg/mL) to pre-heated incubation plates T60 and NCF60, and then pre-heating the incubation plates T60 and NCF60 for 10 minutes at 37° C. with shaking. Transferring 54 μL of liver microsomes to each well of the blank plate, adding 6 μL of NAPDH coenzyme solution to the blank plate, and finally transferring 180 μL of termination solution to the blank plate.
2.5.4 Adding 5 μL of compound working solution (100 μM) to the incubation plates T60 and NCF60 containing liver microsomes and mixing three times.
2.5.5. Adding 50 μL of buffer to the NCF60 plate and mixing three times, starting the timer and incubating at 37° C. for 60 min with the plate shaking.
2.5.6. Adding 180 μL of quenching solution and 6 μL of NAPDH coenzyme working solution sequentially to quenching plate TO, making sure that the plate was cold to prevent volatilization of the incubation solution.
2.5.7. For plate T60, mixing well three times and immediately transferring 54 μL of mixing solution (0-min time point) to quenching plate TO, then adding 44 μL of NAPDH coenzyme working solution to incubation plate T60. Starting the timer:
2.5.8. At the 5, 15, 30, 45 and 60 minute time points, adding 180 μL of quenching solution to the quenching plate and transferring 60 μL of reaction solution from the T60 plate to the quenching plate at each time point.
2.5.9. For NCF60 plates, mixing well and transferring 60 μL of reaction solution from the NCF60 incubating solution to a quenching plate containing 180 μL of quenching solution at 60th minute.
2.5.10. All plates were mixed on a shaker for 10 min and then centrifuged at 4000 rpm at 4° C. for 20 min.
2.5.11. Transferring 80 μL of supernatant to 240 μL of HPLC water and mixing on a
2.6.1. Calculating t1/2 and Clint (mic) values based on first-order elimination kinetics: […]

Compound | free drug proportion of in human plasma [1] [%] | half-life at 1 μM ([2]; Sprague-Dawley, rat, liver microsomes, 37° C., read-out: Rat liver microsomes T½) [min] | Rat liver microsomes Residual (T = 60 min) ([2]; T = 60 min) [%]
4-((2R,3S,4S,5R)-3-(3,4-difluoro-2-(methoxy-d3)phenyl)-4,5-dimethyl-5-(trifluoromethyl) pyrrolidine-2-carboxamido)pyridinamide [Compound 11] | 1.6 | – | –
COc1c([C@H]2[C@H](C(=O)Nc3ccnc(C(N)=O)c3)O[C@@](C)(C(F)(F)F)[C@H]2C)ccc(F)c1F [VX-548, reference compound] | 1.0 | 16.7 | 8.5
